Laboratory results from patent EP0758233B1, “PDE IV INHIBITORS FOR TREATING MULTIPLE SCLEROSIS” (SCHERING AKTIENGESELLSCHAFT, priority 1994, dated 1995).

Legend:
[1] = test system: encephalitogenic CD4+ MBP-specific rat TCL (L1402); assay: TNF/LT production by rat MBP-specific T-cell line, cytotoxicity bioassay; type: cell-based; conditions: stereospecificity, (-)- versus (+)-enantiomer
From the text: To assess the ability of rolipram alone or in various combinations as described to modify autoimmune processes, we investigated its influence on TNF production in vitro by MBP-specific T-cell lines from MS patients and Lewis rats. MBP is a major candidate antigen in MS, and T-cell-mediated immunity is of crucial importance in its pathogenesis. Similar to EAE, MBP-specific T-cells in humans are often cytotoxic, of Th1 type secreting interferon (IFN)-gamma and TNF/LT, and recognize epitopes that are also encephalitogenic in EAE.
Similar results were found using an encephalitogenic CD4+ MBP-specific rat TCL (L1402). […] Previous investigations had shown that inhibition of cAMP PDE by rolipram is stereospecific.
TNF and LT may both be produced by autoactive T-cells. CD4+ cells have been reported to be the major source of TFN in autoimmune insulitis of NOD mice. The cytokine bioassay for TNF/LT detection employed here is sensitive to TNF and LT, but is 200 times more sensitive to the former.

[2] = test system: Experimental Allergic Encephalomyelitis (EAE); assay: Prevention of Experimental Allergic Encephalomyelitis (EAE) in immunized marmosets; type: in vivo, Callithrix jacchus (common marmoset); conditions: treatment stopped on day 60 following immunization; two marmosets; day counted from withdrawal
active EAE = assay: Treatment of active (chronic) EAE in a marmoset; type: in vivo, Callithrix jacchus (common marmoset); conditions: one marmoset with chronic EAE; escalating doses of Rolipram in DMSO
[3] = test system: adoptive cell transfer (tEAE); assay: EAE after adoptive cell transfer (tEAE) in Lewis rats; type: in vivo; conditions: treatment after onset of symptoms; n = 5
Procedure: The results of our in vivo findings prompted us to perform treatment experiments in EAE after active immunization (aEAE) and adoptive cell transfer (tEAE) in Lewis rats. […] In clinically manifest EAE, treatment was started within 6 hours of the onset of symptoms. […] In tEAE similar effects were observed. […] Treatment after onset of symptoms also lead to a marked reduction in maximum severity (treated group: MMS 0.7 ± 0.10, n = 5; vehicle treated matched controls 2.45 ± 0.56, n = 5, p 0.01).

Row | Structure (SMILES) | times more effective than the (+)-enantiomer (inhibition of TNF/LT production) [1] [times] | clinical signs of EAE following withdrawal of Rolipram [2] [days] | MRI improvement following initiating Rolipram treatment (active EAE) [days] | marked improvement (physical symptoms) after initiating treatment (active EAE) [days] | maximum severity, MMS [3]
1 | COc1ccc(C2CNC(=O)C2)cc1OC1CCCC1 (single isomer, unassigned; (-)) [(-)-rolipram] | 55 | – | – | – | –
2 | COc1ccc(C2CNC(=O)C2)cc1OC1CCCC1 (centres unmarked) [Rolipram, 4-[(3-cyclopentyloxy)-4-methoxyphenyl)-2-pyrrolidinone] | – | 17 | 14 | 10 | 0.7 ± 0.10
